Our source for the IC50 and EC50 values is US7772180B2, “Hepatitis C virus inhibitors” (Bristol-Myers Squibb Company, priority 2006, dated 2010).

In experiment [1] the target is T1, HCV NS3/4A protease complex, BMS strain (UniProt P27958, species not given/STRAIN_BMS).
T1 construct: other: NS3/4A BMS strain; activity range class; numeric values, unit not given; said of H77 and J4L6S; fused on or other part: A three-lysine solubilising tail at the C-terminus of NS4A; A His tag is implied by the pET21b vector and Ni-NTA purification; Both are printed for the H77 and J4L6S constructs and apply to BMS by inference
Nature of the experiment: FRET peptide assay to monitor HCV NS3/4A proteolytic activity (BMS strain). The format is biochemical, Hepatitis C virus (genotype 1a). The settings on record: read-out: HCV Protease (IC50), NS3/4A BMS strain. The procedure, abridged: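 Inhibition measured by real-time fluorescence increase as the protease cleaves RET S1 FRET depsipeptide (2 μM final). Enzyme: >90% pure BMS-strain (1a) NS3/4A at 2-3 nM final, or 300 pM with 50 μg/ml BSA for potent compounds. Buffer: 50 mM HEPES pH 7.5, 0.15 M NaCl, 0.1% Triton, 15% glycerol, 10 mM βME.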

In experiment [2] the test system is HCV replicon (strain 1b) in HUH-7 cells. Briefly: HCV replicon FRET assay. The experiment is classed as cell-based, Hepatitis C virus. The settings on record: Hepatitis C virus, Huh-7, read-out: HCV Pro Replicon (EC50), HCV replicon cell assay.

pEC50, pIC50: −log10 of the molar value. Where two headings read alike, the source gives them in different places.

T1 sequence (P27958 1027-1657, change not shown, one chain of several): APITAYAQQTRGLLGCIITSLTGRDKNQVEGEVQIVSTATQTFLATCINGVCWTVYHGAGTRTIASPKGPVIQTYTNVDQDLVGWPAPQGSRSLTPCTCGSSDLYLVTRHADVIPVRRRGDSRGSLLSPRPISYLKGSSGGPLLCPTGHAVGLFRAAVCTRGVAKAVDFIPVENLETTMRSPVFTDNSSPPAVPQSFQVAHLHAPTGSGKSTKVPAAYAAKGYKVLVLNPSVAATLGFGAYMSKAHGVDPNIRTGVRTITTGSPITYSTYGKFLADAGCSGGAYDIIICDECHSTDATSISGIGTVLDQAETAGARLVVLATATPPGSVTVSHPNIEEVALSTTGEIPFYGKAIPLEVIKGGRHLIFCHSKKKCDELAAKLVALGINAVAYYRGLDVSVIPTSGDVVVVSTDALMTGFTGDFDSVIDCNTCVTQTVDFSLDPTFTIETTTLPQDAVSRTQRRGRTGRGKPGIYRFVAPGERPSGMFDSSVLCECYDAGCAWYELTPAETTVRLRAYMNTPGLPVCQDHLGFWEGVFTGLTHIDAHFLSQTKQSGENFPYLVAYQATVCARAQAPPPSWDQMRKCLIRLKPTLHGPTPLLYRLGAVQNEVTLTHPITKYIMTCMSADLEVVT

Regarding `C=C[C@@H]1C[C@]1(NC(=O)[C@@H]1C[C@@H](Oc2nccc3cc(OC)ccc23)CN1C(=O)C(Nc1ccccn1)C(C)C)C(=O)NS(=O)(=O)C1CC1` (single isomer, unassigned) [Compound 7], the pIC50 in experiment [1] (activity range class) is 6.70 to 7.70. Moreover, the pEC50 in experiment [2] (activity range class) is 7.00 to 8.52.
With `C=C[C@@H]1C[C@]1(NC(=O)[C@@H]1C[C@@H](Oc2ncc(OC)c3ccc(Cl)cc23)CN1C(=O)[C@H](Nc1ccc(C(=O)N(C)C)cc1)C(C)(C)C)C(=O)NS(=O)(=O)C1CC1` [221 second isomer, N-(4-(dimethylcarbamoyl)phenyl)-3-methyl-D-valyl-(4R)-4-((7-chloro-4-methoxy-1-isoquinolinyl)oxy)-N-((1R,2S)-1-((cyclopropylsulfonyl)carbamoyl)-2-vinylcyclopropyl)-L-prolinamide], the pIC50 in experiment [1] (activity range class) was 6.70 to 7.70. For the same compound, the pEC50 in experiment [2] (activity range class) is less than 6.00.
On to `C=C[C@@H]1C[C@]1(NC(=O)[C@@H]1C[C@@H](Oc2ncc(OC)c3ccc(Cl)cc23)CN1C(=O)[C@@H](Nc1ccc(F)c(F)c1)C(C)(C)C)C(=O)NS(=O)(=O)C1CC1` [220 first isomer, N-(3,4-difluorophenyl)-3-methyl-L-valyl-(4R)-4-((7-chloro-4-methoxy-1-isoquinolinyl)oxy)-N-((1R,2S)-1-((cyclopropylsulfonyl)carbamoyl)-2-vinylcyclopropyl)-L-prolinamide], for which, in experiment [1] (activity range class), the pIC50 was 7.70 to 9.22. Further, the negative logarithm of the EC50 (pEC50) in experiment [2] (activity range class) is 7.00 to 8.52.
With `C=C[C@@H]1C[C@]1(NC(=O)[C@@H]1C[C@@H](Oc2nccc3cc(OC)ccc23)CN1C(=O)[C@@H](Nc1nc(OC)nc(OC)n1)C(C)C)C(=O)NS(=O)(=O)C1CC1` [Compound 4, N-(4,6-dimethoxy-1,3,5-triazin-2-yl)valyl-(4R)—N-((1R,2S)-1-((cyclopropylsulfonyl)carbamoyl)-2-vinylcyclopropyl)-4-((6-methoxy-1-isoquinolinyl)oxy)-L-prolinamide], the pIC50 in experiment [1] (activity range class) is 6.70 to 7.70. In addition, in experiment [2] (activity range class), the pEC50 is less than 6.00.
For `C=C[C@@H]1C[C@]1(NC(=O)[C@@H]1C[C@@H](Oc2ncc(OC)c3ccc(Cl)cc23)CN1C(=O)[C@H](Nc1ccc(S(=O)(=O)N(C)C)cc1)C(C)(C)C)C(=O)NS(=O)(=O)C1CC1` [224 second isomer, N-(4-(dimethylsulfamoyl)phenyl)-3-methyl-D-valyl-(4R)-4-((7-chloro-4-methoxy-1-isoquinolinyl)oxy)-N-((1R,2S)-1-((cyclopropylsulfonyl)carbamoyl)-2-vinylcyclopropyl)-L-prolinamide] the same measures were less than 6.70 and 6.00 to 7.00.
`C=C[C@@H]1C[C@]1(NC(=O)[C@@H]1C[C@@H](Oc2ncc(OC)c3ccc(Cl)cc23)CN1C(=O)C(Nc1cncc(C)c1)C(C)(C)C)C(=O)NS(=O)(=O)C1CC1` (stereo partly drawn) [Compound 25, 3-methyl-N-(5-methyl-3-pyridinyl)valyl-(4R)-4-((7-chloro-4-methoxy-1-isoquinolinyl)oxy)-N-((1R,2S)-1-((cyclopropylsulfonyl)carbamoyl)-2-vinylcyclopropyl)-L-prolinamide]: the pIC50 in experiment [1] (activity range class) is 7.70 to 9.22. Moreover, in experiment [2] (activity range class), the negative logarithm of the EC50 (pEC50) was 7.00 to 8.52.
For `C=C[C@@H]1C[C@]1(NC(=O)[C@@H]1C[C@@H](Oc2ncc(OC)c3ccc(Cl)cc23)CN1C(=O)[C@H](Nc1cccc(S(=O)(=O)NC(C)(C)C)c1)C(C)(C)C)C(=O)NS(=O)(=O)C1CC1` [206 second isomer, N-(3-(tert-butylsulfamoyl)phenyl)-3-methyl-D-valyl-(4R)-4-((7-chloro-4-methoxy-1-isoquinolinyl)oxy)-N-((1R,2S)-1-((cyclopropylsulfonyl)carbamoyl)-2-vinylcyclopropyl)-L-prolinamide] the same measures were less than 6.70 and less than 6.00.
Turning to `C=C[C@@H]1C[C@]1(NC(=O)[C@@H]1C[C@@H](Oc2ncc(OC)c3ccc(Cl)cc23)CN1C(=O)[C@H](Nc1cccc(C(=O)OC)c1)C(C)(C)C)C(=O)NS(=O)(=O)C1CC1` [232 second isomer, N-(3-(methoxycarbonyl)phenyl)-3-methyl-D-valyl-(4R)-4-((7-chloro-4-methoxy-1-isoquinolinyl)oxy)-N-((1R,2S)-1-((cyclopropylsulfonyl)carbamoyl)-2-vinylcyclopropyl)-L-prolinamide], the pIC50 in experiment [1] (activity range class) is 6.70 to 7.70. Besides, the pEC50 in experiment [2] (activity range class) was 7.00 to 8.52.
Taken in the same sequence, the figures for `C=C[C@@H]1C[C@]1(NC(=O)[C@@H]1C[C@@H](Oc2nc(-c3ccc(OC(F)(F)F)cc3)cc3cc(OC)ccc23)CN1C(=O)[C@@H](NC1=NCCCS1)C(C)(C)C)C(=O)NS(=O)(=O)C1CC1` [Compound 37, N-(5,6-dihydro-4H-1,3-thiazin-2-yl)-3-methyl-L-valyl-(4R)—N-((1R,2S)-1-((cyclopropylsulfonyl)carbamoyl)-2-vinylcyclopropyl)-4-((6-methoxy-3-(4-(trifluoromethoxy)phenyl)-1-isoquinolinyl)oxy)-L-prolinamide] were 7.70 to 9.22 and 7.00 to 8.52.
As for `C=C[C@@H]1C[C@]1(NC(=O)[C@@H]1C[C@@H](Oc2ncc(OC)c3ccc(Cl)cc23)CN1C(=O)[C@@H](Nc1cccc(F)c1F)C(C)(C)C)C(=O)NS(=O)(=O)C1CC1` [208 first isomer, N-(2,3-difluorophenyl)-3-methyl-L-valyl-(4R)-4-((7-chloro-4-methoxy-1-isoquinolinyl)oxy)-N-((1R,2S)-1-((cyclopropylsulfonyl)carbamoyl)-2-vinylcyclopropyl)-L-prolinamide], the pIC50 in experiment [1] (activity range class) was 7.70 to 9.22. The pEC50 in experiment [2] (activity range class) is 7.00 to 8.52.
Regarding `C=C[C@@H]1C[C@]1(NC(=O)[C@@H]1C[C@@H](Oc2ncc(OC)c3ccc(Cl)cc23)CN1C(=O)[C@@H](Nc1cccc(C(=O)O)c1)C(C)(C)C)C(=O)NS(=O)(=O)C1CC1` [211 first isomer, N-(3-carboxyphenyl)-3-methyl-L-valyl-(4R)-4-((7-chloro-4-methoxy-1-isoquinolinyl)oxy)-N-((1R,2S)-1-((cyclopropylsulfonyl)carbamoyl)-2-vinylcyclopropyl)-L-prolinamide], in experiment [1] (activity range class), the pIC50 is 7.70 to 9.22. The pEC50 in experiment [2] (activity range class) is 7.00 to 8.52.
With `C=C[C@@H]1C[C@]1(NC(=O)[C@@H]1C[C@@H](Oc2nc(N(C)C)cc3cc(OC)ccc23)CN1C(=O)C(Nc1ccccc1)C(C)(C)C)C(=O)NS(=O)(=O)C1CC1` (single isomer, unassigned) [Compound 19B], in experiment [1] (numeric values, unit inferred), the pIC50 is 6.00. Besides, the pEC50 in experiment [2] (numeric values, unit inferred) was 5.73.
Turning to `C=C[C@@H]1C[C@]1(NC(=O)[C@@H]1C[C@@H](Oc2nc(N(C)C)cc3cc(OC)ccc23)CN1C(=O)C(Nc1cc(C)cc(C)n1)C(C)C)C(=O)NS(=O)(=O)C1CC1` (stereo partly drawn) [Compound 17, N-(4,6-dimethyl-2-pyridinyl)valyl-(4R)—N-((1R,2S)-1-((cyclopropylsulfonyl)carbamoyl)-2-vinylcyclopropyl)-4-((3-(dimethylamino)-6-methoxy-1-isoquinolinyl)oxy)-L-prolinamide], in experiment [1] (activity range class), the pIC50 is 7.70 to 9.22. The pEC50 in experiment [2] (activity range class) was 7.00 to 8.52.
For `C=C[C@@H]1C[C@]1(NC(=O)[C@@H]1C[C@@H](Oc2ncc(OC)c3ccc(Cl)cc23)CN1C(=O)C(Nc1cccc(OC)c1)C(C)(C)C)C(=O)NS(=O)(=O)C1CC1` (single isomer, unassigned) [Compound 201B] the same measures were 6.70 to 7.70 and 7.00 to 8.52.
